Data published in patent US20050281821A1, “Method and composition for angiogenesis inhibition” (priority 1999, published 2005).

Experiments:
[1] = system: protease produced by HUVEC that unmasks the cryptic site in type-IV collagen; assay: Unmasking of HUIV26 cryptic site in collagen type-IV by HUVEC conditioned media; format: biochemical, human
Experimental: Microtiter plates were coated with extracellular matrix components, each at a concentration of 25 μg/ml. A). Mab HUIV26 was added at a concentration of 1 μg/ml, followed 1 hour later with goat anti-mouse peroxidase labeled IgG. Denatured collagen type-I and collagen type-IV were prepared by boiling for 15 minutes before coating the plates. All data were corrected for any non-specific binding of secondary antibody. Data bars represent the mean optical density (O.D.)±standard deviations from triplicate wells. B). Microtiter wells were coated with triple helical collagen type-IV at 25 μg/ml. Concentrated (20×) HUVEC conditioned media was added to the wells in the presence or absence of EDTA, aprotinin or both and allowed to incubate for 1, 6 and 24 hours. The plates were next washed, blocked and incubated with Mab HUIV26 or control antibody. All data were corrected for non-specific secondary antibody binding. Data bars represent the mean optical density (O.D.)±standard deviations from triplicate wells. The following abbreviations are used in the figure Coll-I, collagen type-I; Coll-IV, collagen type-IV.

[2] = system: MX-1 human breast carcinoma cells; assay: Non-orthotopic MX-1 human breast tumor model; format: in vivo, SCID mice
Experimental: A study was performed in the staged subcutaneous (non-orthotopic) MX-1 breast tumor model. Female, 7 week-old, SCID mice were injected in the dorsal right flank with 0.75×10^7 MX-1 human breast carcinoma cells in 100 μl of PBS. Treatments were initiated when MX-1 tumors grew to a mean volume of 115 mm^3. The animals were randomly divided into 5 treatment groups, each having 6-7 animals per group. Animals were treated with D93 (i.v., 2×/week) and/or Taxol 100 μl volume (i.p. 2×/week), as outlined below. One control group of animals remained untreated, and another received PBS (vehicle) only. The animals were treated for 25 days.
Tumor size was measured every 7-20 days starting at first day-post randomization and continued until the end of the study. Measurements were recorded as (L×W^2)/2 where L is the length of the tumor or the largest diameter, and W is the width or shortest diameter. Animals were euthanized at the end of the study and final tumor measurements were recorded.

[3] = system: MDA-MB-435 tumor cells; assay: Orthotopic MDA-MB-435 human breast tumor model in mice; format: in vivo, female nude mice
Experimental: The effect of antibodies D93 and H8 in an orthotopic human breast tumor model was evaluated. MDA-MB-435 tumor cells (0.4×10^6 cells/mouse) in 50 μl PBS were orthotopically implanted in the mammary fat pad of female nude mice (five to six weeks old). When tumors reached a mean volume of approximately 50-80 mm^3, mice were randomized (at least 10/group) and intravenous treatment with D93 and H8 at 1 μg (0.05 mg/kg) per dose, 10 μg (0.5 mg/kg), 100 μg (5 mg/kg) or 200 μg (10 mg/kg), or 100 μg control antibody DP28 in 100 μl PBS, or vehicle PBS 100 μl twice per week was initiated; in some studies, an untreated group was also evaluated.
Tumor sizes were measured every 7-20 days starting at the first day of treament and continued until day 50-80 post-treatment. Tumor length (L) and width (W) were measured with calipers and tumor volumes were calculated using the formula: (L×W^2)/2 where L was the length of the tumor or the largest diameter, and W was the width or shortest diameter. Animals were euthanized at the end of the study and final tumor measurements were recorded.
The effect of combination treatment of D93 with Taxol was evaluated for eight weeks in the orthotopic MDA-MB-435 human breast tumor model in mice. MDA-MB-435 tumor cells were implanted into female nude mice as described in Example 20. Animals were randomized into seven treatment groups (n=12-13/group) with mean tumor volume 78 mm^3. D93 was administered at 100 μg/dose (5 mg/kg) twice weekly. Taxol was administered intraperitoneally at 3 or 6 mg/kg q.w. A vehicle control group of animals received PBS twice weekly and HBSS once weekly. Another control group received DP28 control antibody, administered at 100 μg/dose, twice weekly. Treatments with D93 and Taxol, as well as controls, were initiated on the same day (Day 1).
Tumor sizes were measured every 7 days starting at the first day of treatment and continued until day 55 post-treatment. Measurements were recorded as (L×W^2)/2 where L is the length of the tumor or the largest diameter, and W is the width or shortest diameter. Animals were euthanized at the end of the study and the final measurements were recorded.
In a study similar to that described in Example 21, Taxol was administered intraperitoneally at 6 or 10 mg/kg q.w. Animals were treated for 51 days.

[4] = Table VI, D93 100 μg i.v. 2×/week and/or Taxol 6 mg/kg i.p. 2×/week
[5] = Table IV, D93 or DP-28 100 μg i.v. 2×/week and/or Taxol 6 mg/kg i.p. 1×/week
[6] = Table IV, Taxol 3 mg/kg i.p. 1×/week alone or with D93 100 μg i.v. 2×/week
[7] = Table V, D93 or DP-28 100 μg i.v. 2×/week and/or Taxol 6 mg/kg i.p. 1×/week
[8] = Table V, Taxol 10 mg/kg i.p. 1×/week alone or with D93 100 μg i.v. 2×/week

**Q.** With O=C(O)CN(CCN(CC(=O)O)CC(=O)O)CC(=O)O [EDTA] as the compound, how does the “effect on the HUVEC protease that unmasks the cryptic site in type-IV collagen” value ([1]; FIG. 11B) read?
**A.** inhibited

**Q.** With CC(=O)O[C@H]1C(=O)[C@@]2(C)[C@H]([C@H](OC(=O)c3ccccc3)[C@]3(O)C[C@H](OC(=O)[C@H](O)[C@@H](NC(=O)c4ccccc4)c4ccccc4)C(C)=C1C3(C)C)[C@]1(OC(C)=O)CO[C@@H]1C[C@@H]2O [Taxol, paclitaxel] as the compound, how does the “effect on tumor growth” value ([2]; FIG. 39, D93 100 μg and/or Taxol 6 mg/kg, 25 days) read?
**A.** inhibit tumor growth

**Q.** What about the “Tumor volume, Day 1” value [2, 4] of the same compound?
**A.** 119 mm^3

**Q.** And the “Tumor volume, Day 5” value [2, 4]?
**A.** 224.19 mm^3

**Q.** What about the “Tumor volume, Day 12” value [2, 4] of the same compound?
**A.** 602 mm^3

**Q.** What about the “Tumor volume, Day 19” value [2, 4] of the same compound?
**A.** 761.89 mm^3

**Q.** What about the “Tumor volume, Day 26” value [2, 4] of the same compound?
**A.** 1196 mm^3

**Q.** What about the “inhibition of tumor volume compared to DP28” value ([3]; Example 21, D93 100 μg/dose twice per week and/or Taxol 6 mg/kg q.w.) of the same compound?
**A.** 42%

**Q.** What about the “inhibition of tumor growth compared to DP-28” value ([3]; Example 21, Taxol 3 mg/kg q.w. alone or plus D93 100 μg/dose twice per week) of the same compound?
**A.** 6%

**Q.** And the “Tumor volume, Day 1” value [3, 5]?
**A.** 78 mm^3

**Q.** And the “Tumor volume, Day 8” value [3, 5]?
**A.** 203 mm^3

**Q.** What about the “Tumor volume, Day 27” value [3, 5] of the same compound?
**A.** 315 mm^3

**Q.** And the “Tumor volume, Day 34” value [3, 5]?
**A.** 399 mm^3

**Q.** And the “Tumor volume, Day 41” value [3, 5]?
**A.** 530 mm^3

**Q.** What about the “Tumor volume, Day 48” value [3, 5] of the same compound?
**A.** 688 mm^3

**Q.** What about the “Tumor volume, Day 54” value [3, 5] of the same compound?
**A.** 793 mm^3

**Q.** And the “Tumor volume, Day 55” value [3, 5]?
**A.** 787 mm^3

**Q.** And the “Tumor volume, Day 1” value [3, 6]?
**A.** 78 mm^3

**Q.** What about the “Tumor volume, Day 8” value [3, 6] of the same compound?
**A.** 257 mm^3

**Q.** What about the “Tumor volume, Day 27” value [3, 6] of the same compound?
**A.** 361 mm^3

**Q.** And the “Tumor volume, Day 34” value [3, 6]?
**A.** 476 mm^3

**Q.** What about the “Tumor volume, Day 41” value [3, 6] of the same compound?
**A.** 604 mm^3

**Q.** What about the “Tumor volume, Day 48” value [3, 6] of the same compound?
**A.** 815 mm^3

**Q.** What about the “Tumor volume, Day 54” value [3, 6] of the same compound?
**A.** 1034 mm^3

**Q.** What about the “Tumor volume, Day 55” value [3, 6] of the same compound?
**A.** 1275 mm^3

**Q.** And the “Tumor volume, Day 1” value [3, 7]?
**A.** 58.55 mm^3

**Q.** What about the “Tumor volume, Day 21” value [3, 7] of the same compound?
**A.** 210.6 mm^3

**Q.** What about the “Tumor volume, Day 32” value [3, 7] of the same compound?
**A.** 392.04 mm^3

**Q.** And the “Tumor volume, Day 39” value [3, 7]?
**A.** 559.9 mm^3

**Q.** And the “Tumor volume, Day 45” value [3, 7]?
**A.** 771 mm^3

**Q.** What about the “Tumor volume, Day 51” value [3, 7] of the same compound?
**A.** 866 mm^3

**Q.** What about the “Tumor volume, Day 1” value [3, 8] of the same compound?
**A.** 58.6 mm^3

**Q.** What about the “Tumor volume, Day 21” value [3, 8] of the same compound?
**A.** 196.5 mm^3

**Q.** And the “Tumor volume, Day 32” value [3, 8]?
**A.** 361.56 mm^3

**Q.** What about the “Tumor volume, Day 39” value [3, 8] of the same compound?
**A.** 487.05 mm^3

**Q.** What about the “Tumor volume, Day 45” value [3, 8] of the same compound?
**A.** 672 mm^3

**Q.** And the “Tumor volume, Day 51” value [3, 8]?
**A.** 820 mm^3

**Q.** Which results are given for aprotinin?
**A.** block of Mab HUIV26 reactivity observed in the absence of protease inhibitor ([1]; 6 hour time point): 40%; block of Mab HUIV26 reactivity observed in the absence of protease inhibitor ([1]; 24 hour time point): 70%; effect on unmasking of cryptic site(s) in type-IV collagen ([1]; one hour of incubation with HUVEC conditioned media): little effect
